# Measured values published in patent US7375088B2, “Polyene polyketides, processes for their production and their use as a pharmaceutical” (Thallion Pharmaceuticals Inc., priority 2003, dated 2008).
# Read-outs that look alike come from different tables or passages of the source.
# How the values were obtained:
# [1] = system: HOP92/non-small cell lung carcinoma; assay: NCI in vitro antiproliferative screen (SRB, GI50); type: cell-based, human
# Protocol: (§1) In Vitro antipoliferative study of Compound 2a was performed by the National Cancer Institute (National Institutes of Health, Bethesda, Md., USA) against a panel of cancer cell lines in order to determine the concentrations needed to obtain a 50% inhibition of cell proliferation (IC50). The operation of this unique screen utilizes 60 different human tumor cell lines, representing leukemia, melanoma, and cancers of the lung, colon, brain, ovary, breast prostate and kidney. Compound 2(a) was provided as a lyophilized powder with an estimated purity of 90+%. The compound was stored at −20° C. until day of use.
# (§2) The human tumor cell lines of the cancer-screening panel were grown in RPMI 1640 medium containing 5% fetal bovine serum and 2 mM L-glutamine. For a typical screening experiment, cells were inoculated into 96 well microtiter plates in 100 μl at plating densities ranging from 5000 to 40,000 cells/well depending on the doubling time of individual cell lines (Table 8). After cell inoculation, the microtiter plates were incubated at 37° C., under 5% CO2, 95% air and 100% relative humidity for 24 hours prior to addition of the experimental drugs.
# (§3) After 24 hours, two plates of each cell line were fixed in situ with TCA, to represent a measurement of the cell population for each cell line at the time of drug addition (Tz). Compound 2(a) was solubilized in dimethyl sulfoxide at 400-fold the desired final maximum test concentration and stored frozen prior to use. At the time of drug addition, an aliquot of frozen concentrate was thawed and diluted to twice the desired final maximum test concentration with complete medium containing 50 μg/ml gentamicin. Additional four, serial dilutions were made to provide a total of five drug concentrations plus control. Aliquots of 100 μl of these different drug dilutions were added to the appropriate microtiter wells already containing 100 μl of medium, resulting in the required final drug concentrations (2.5×10^−5 M to 2.5×10^−9 M).
# (§4) Following drug addition, the plates were incubated for an additional 48 hours at 37° C., 5% CO2, 95% air, and 100% relative humidity. For adherent cells, the assay was terminated by the addition of cold TCA. Cells were fixed in situ by the gentle addition of 50 μl of cold 50% (w/v) TCA (final concentration, 10% TCA) and incubation for 60 minutes at 4° C. The supernatant was discarded, and the plates were washed five times with tap water and air-dried. Sulforhodamine B (SRB) solution (100 μl) at 0.4% (w/v) in 1% acetic acid was added to each well, and plates were incubated for 10 minutes at room temperature. After staining, unbound dye was removed by washing five times with 1% acetic acid and the plates were air-dried. Bound stain was subsequently solubilized with 10 mM trizma base, and the absorbance was read on an automated plate reader at a wavelength of 515 nm. For suspension cells, the methodology was the same except that the assay was terminated by fixing settled cells at the bottom of the wells by gently adding 50 μl of 80% TCA (final concentration, 16% TCA).
# (§5) The growth inhibitory power of compound 2(a) was measured by NCl utilizing the GI50 value, rather than the classical IC50 value. The GI50 value emphasizes the correction for the cell count at time zero and, using the seven adsorbance measurements [time zero (Tz), control growth (C), and the test growth in the presence of drug at each of the five concentration levels (Ti)], GI50 is calculated as [(Ti−Tz)/(C−Tz)×100=−50. which is the drug concentration resulting in a 50% reduction in the net protein increase (as measured by SRB staining) in control cells during the drug incubation.
# SN12C/renal carcinoma = assay: NCI in vitro antiproliferative screen (SRB, GI50); type: cell-based, human
# Protocol: as §1, §2, §3, §4, §5
# HCC2998/colon carcinoma = assay: NCI in vitro antiproliferative screen (SRB, GI50); type: cell-based, human
# Protocol: as §1, §2, §3, §4, §5
# [2] = system: 60 different human tumor cell lines; assay: NCI in vitro antiproliferative screen, 60 human tumor cell lines (SRB, GI50); type: cell-based
# Protocol: as §1, §2, §3, §4, §5
smiles,measurement,setting,value
"CC(C=CCCC=CC=CC=CC=CC(=O)NC1=C(O)CCC1=O)C(O)C(C)C(O)C=CC=CC=CC=CC=CCC(OC1OC(C)C(O)C(O)C1O)C(C)C(=O)CC(O)CC(O)CC(O)C=CCC(O)CC(O)CC(O)CC(O)C=CCC(O)CC(O)CCCN (stereo not drawn) [Compound 2(a), 56-Amino-15,17,33,35,37,41,43,45,47,51,53-undecahydroxy-14,16,30-trimethyl-31-oxo-29-(3,4,5-trihydroxy-6-methyl-tetrahydro-pyran-2-yloxy)-hexapentaconta-2,4,6,8,12,18,20,22,24,26,38,48-dodecaenoic acid (2-hydroxy-5-oxo-cyclopent-1-enyl)-amide]",GI50 level,"[1]; HOP92/non-small cell lung carcinoma, 48 hours",nanomolar or picomolar level
same,GI50,"[1]; Homo sapiens, HOP-92, Non-small cell lung cancer, 48 h",0.0977 µM
same,GI50,"SN12C/renal carcinoma; Homo sapiens, SN12C, Renal cancer, 48 h",0.138 µM
same,GI50 level,"SN12C/renal carcinoma; SN12C/renal carcinoma, 48 hours",nanomolar or picomolar level
same,GI50 level,"HCC2998/colon carcinoma; HCC2998/colon carcinoma, 48 hours",nanomolar or picomolar level
same,GI50,"HCC2998/colon carcinoma; Homo sapiens, HCC-2998, Colon cancer, 48 h",0.0603 µM
same,GI50,"[2]; 786-0, 48 h, 786-0, Renal cancer, read-out: GI50",3.07 µM
same,GI50,"[2]; 48 h, MDA-MB-, Breast cancer",3.38 µM
same,GI50,"[2]; 48 h, PC-3, Prostate cancer, read-out: GI50",2.66 µM
same,GI50,"[2]; 48 h, all cell lines of the NCI screening panel, 48 hours drug incubation",< 10 µM
same,GI50,"[2]; A498, 48 h, A498, Renal cancer, read-out: GI50",4.82 µM
same,GI50,"[2]; A549, 48 h, A549/ATCC, Non-small cell lung cancer, read-out: GI50",4.09 µM
same,GI50,"[2]; ACHN, 48 h, ACHN, Renal cancer, read-out: GI50",2.96 µM
same,GI50,"[2]; BT-549, 48 h, BT-549, Breast cancer, read-out: GI50",4.59 µM
same,GI50,"[2]; CAKI-1, 48 h, CAKI-1, Renal cancer, read-out: GI50",2.99 µM
same,GI50,"[2]; COLO 205, 48 h, COLO 205, Colon cancer, read-out: GI50",5 µM
same,GI50,"[2]; DU-145, 48 h, DU-145, Prostate cancer, read-out: GI50",3.78 µM
same,GI50,"[2]; EKVX, 48 h, EKVX, Non-small cell lung cancer, read-out: GI50",5.87 µM
same,GI50,"[2]; HCT-15, 48 h, HCT-15, Colon cancer, read-out: GI50",3.25 µM
same,GI50,"[2]; HCT-116, 48 h, HCT-116, Colon cancer, read-out: GI50",4.18 µM
same,GI50,"[2]; HOP-62, 48 h, HOP-62, Non-small cell lung cancer, read-out: GI50",6.83 µM
same,GI50,"[2]; HT-29, 48 h, HT29, Colon cancer, read-out: GI50",6.36 µM
same,GI50,"[2]; IGROV-1, 48 h, IGROV1, Ovarian cancer, read-out: GI50",2.95 µM
same,GI50,"[2]; K562, 48 h, K-562, Leukemia, read-out: GI50",9.18 µM
same,GI50,"[2]; KM12, 48 h, KM12, Colon cancer, read-out: GI50",2.76 µM
same,GI50,"[2]; LOX IMVI, 48 h, LOX IMVI, Melanoma, read-out: GI50",3.73 µM
same,GI50,"[2]; M14, 48 h, M14, Melanoma, read-out: GI50",4.15 µM
same,GI50,"[2]; MCF7, 48 h, MCF7, Breast cancer, read-out: GI50",4.22 µM
same,GI50,"[2]; MDA-MB-435, 48 h, MDA-MB-435, Breast cancer, read-out: GI50",3.26 µM
same,GI50,"[2]; MOLT-4, 48 h, MOLT-4, Leukemia, read-out: GI50",5.57 µM
same,GI50,"[2]; Malme-3M, 48 h, MALME-3M, Melanoma, read-out: GI50",2.4 µM
same,GI50,"[2]; NCI-H23, 48 h, NCI-H23, Non-small cell lung cancer, read-out: GI50",4.25 µM
same,GI50,"[2]; NCI-H226, 48 h, NCI-H226, Non-small cell lung cancer, read-out: GI50",3.1 µM
same,GI50,"[2]; NCI-H322M, Non-small cell lung cancer, 48 h, read-out: GI50",3.48 µM
same,GI50,"[2]; NCI-H460, 48 h, NCI-H460, Non-small cell lung cancer, read-out: GI50",3.83 µM
same,GI50,"[2]; NCI-H522, 48 h, NCI-H522, Non-small cell lung cancer, read-out: GI50",2.8 µM
same,GI50,"[2]; NCI/ADR-RES, 48 h, NCI/ADR-RES, Breast cancer, read-out: GI50",4.76 µM
same,GI50,"[2]; OVCAR-3, 48 h, OVCAR-3, Ovarian cancer, read-out: GI50",3.4 µM
same,GI50,"[2]; OVCAR-4, 48 h, OVCAR-4, Ovarian cancer, read-out: GI50",4.48 µM
same,GI50,"[2]; OVCAR-5, 48 h, OVCAR-5, Ovarian cancer, read-out: GI50",4 µM
same,GI50,"[2]; OVCAR-8, 48 h, OVCAR-8, Ovarian cancer, read-out: GI50",4.34 µM
same,GI50,"[2]; RXF 393, 48 h, RXF 393, Renal cancer, read-out: GI50",1.2 µM
same,GI50,"[2]; SF-268, 48 h, SF-268, CNS cancer, read-out: GI50",3.64 µM
same,GI50,"[2]; SF-295, 48 h, SF-295, CNS cancer, read-out: GI50",3.91 µM
same,GI50,"[2]; SK-MEL-2, 48 h, SK-MEL-2, Melanoma, read-out: GI50",4.34 µM
same,GI50,"[2]; SK-MEL-5, 48 h, SK-MEL-5, Melanoma, read-out: GI50",4.16 µM
same,GI50,"[2]; SK-MEL-28, 48 h, SK-MEL-28, Melanoma, read-out: GI50",6.75 µM
same,GI50,"[2]; SK-OV-3, 48 h, SK-OV-3, Ovarian cancer, read-out: GI50",7.94 µM
same,GI50,"[2]; SNB-19, 48 h, SNB-19, CNS cancer, read-out: GI50",5.58 µM
same,GI50,"[2]; SNB-75, 48 h, SNB-75, CNS cancer, read-out: GI50",3.87 µM
same,GI50,"[2]; SW-620, 48 h, SW-620, Colon cancer, read-out: GI50",5.35 µM
same,GI50,"[2]; T47D, 48 h, T-47D, Breast cancer, read-out: GI50",6 µM
same,GI50,"[2]; TK-10, 48 h, TK-10, Renal cancer, read-out: GI50",3.32 µM
same,GI50,"[2]; U-251, 48 h, U251, CNS cancer, read-out: GI50",3.65 µM
same,GI50,"[2]; UACC-62, 48 h, UACC-62, Melanoma, read-out: GI50",2.68 µM
same,GI50,"[2]; UACC-257, 48 h, UACC-257, Melanoma, read-out: GI50",3.74 µM
same,GI50,"[2]; UO-31, 48 h, UO-31, Renal cancer, read-out: GI50",3.65 µM
